# Test results published in ChEMBL document CHEMBL1212697, “High-content single-cell drug screening with phosphospecific flow cytometry” (Nat Chem Biol, 2008).
# Active and inactive are the calls of the source. The rule behind the calls is not given here.
# Tests used:
# [1] = biological target: T1, Janus Kinase (JAK) (Homo sapiens) (UniProt P52333+P23458+O60674+P29597); assay: Inhibition of JAK-mediated interferon-gamma-induced Stat1 phosphorylation in human U937 cells by Phospho-Flow cytometry at 20 uM; format: cell-based; details: U-937
# MAP kinase p38 [2] = biological target: T2, MAP kinase p38 (Homo sapiens, UniProt O15264+Q15759+Q16539+P53778); assay: Inhibition of anisomycin-induced p38 phosphorylation in human U937 cells by Phospho-Flow cytometry at 20 uM; format: cell-based; details: U-937
# MAP kinase p38 [3] = biological target: T2, MAP kinase p38; assay: Inhibition of anisomycin-induced p38 phosphorylation in human U937 cells by Phospho-Flow cytometry; format: cell-based; details: u-937
# [4] = biological target: T1, Janus Kinase (JAK) (Homo sapiens); assay: Inhibition of JAK-mediated GM-CSF-induced Stat5 phosphorylation in human U937 cells by Phospho-Flow cytometry at 20 uM; format: cell-based; details: U-937
# [5] = Inhibition of JAK-mediated IL6-induced Stat1 phosphorylation in BALB/c mouse CD11b-hi neutrophils by Phospho-Flow cytometry
# Mus musculus [6] = assay: In vivo inhibition of JAK-mediated IL4-induced Stat6 phosphorylation in spleen cells in BALB/c mouse at 1 to 10 mg/kg, iv administered 30 mins before IL challenge for 15 mins; format: functional, organism-based
# [7] = Inhibition of JAK-mediated IL7-induced Stat5 phosphorylation in BALB/c mouse CD11b-int macrophages by Phospho-Flow cytometry
# [8] = Inhibition of JAK-mediated IL4-induced Stat5 phosphorylation in BALB/c mouse CD4+ T cells by Phospho-Flow cytometry; format: cell-based; details: T-cell
# [9] = Inhibition of JAK-mediated IL10-induced Stat3 phosphorylation in BALB/c mouse B cells by Phospho-Flow cytometry; format: cell-based
# [10] = Inhibition of JAK-mediated IL4-induced Stat6 phosphorylation in BALB/c mouse CD4+ T cells by Phospho-Flow cytometry; format: cell-based; details: T-cell
# [11] = Inhibition of JAK-mediated IL6-induced Stat1 phosphorylation in BALB/c mouse B cells by Phospho-Flow cytometry; format: cell-based
# [12] = Inhibition of JAK-mediated IL4-induced Stat5 phosphorylation in BALB/c mouse CD11b-hi neutrophils by Phospho-Flow cytometry
# Mus musculus [13] = assay: In vivo inhibition of JAK-mediated IL6-induced Stat3 phosphorylation in blood cells in BALB/c mouse at 1 to 10 mg/kg, iv administered 30 mins before IL challenge for 15 mins; format: functional, organism-based
# T-cell = assay: Inhibition of JAK-mediated interferon-gamma-induced Stat1 phosphorylation in BALB/c mouse CD4+ T cells at 100 uM by Phospho-Flow cytometry; format: cell-based
# [14] = Inhibition of JAK-mediated IL10-induced Stat3 phosphorylation in BALB/c mouse CD11b-int macrophages by Phospho-Flow cytometry
# [15] = Inhibition of JAK-mediated IL10-induced Stat3 phosphorylation in BALB/c mouse CD11b-hi neutrophils by Phospho-Flow cytometry
# [16] = Inhibition of JAK-mediated IL15-induced Stat5 phosphorylation in BALB/c mouse CD4+ T cells by Phospho-Flow cytometry; format: cell-based; details: T-cell
# [17] = Inhibition of JAK-mediated IL6-induced Stat3 phosphorylation in BALB/c mouse CD11b-hi neutrophils by Phospho-Flow cytometry
# [18] = Inhibition of JAK-mediated IL7-induced Stat5 phosphorylation in BALB/c mouse CD8+ T cells by Phospho-Flow cytometry; format: cell-based; details: T-cell
# [19] = Inhibition of JAK-mediated IL7-induced Stat5 phosphorylation in BALB/c mouse B cells by Phospho-Flow cytometry; format: cell-based
# [20] = Inhibition of JAK-mediated IL15-induced Stat5 phosphorylation in BALB/c mouse CD11b-int macrophages by Phospho-Flow cytometry
# [21] = Inhibition of JAK-mediated IL10-induced Stat3 phosphorylation in BALB/c mouse CD8+ T cells by Phospho-Flow cytometry; format: cell-based; details: T-cell
# [22] = Inhibition of JAK-mediated IL4-induced Stat5 phosphorylation in BALB/c mouse CD11b-int macrophages by Phospho-Flow cytometry
# [23] = Inhibition of JAK-mediated IL6-induced Stat3 phosphorylation in BALB/c mouse B cells by Phospho-Flow cytometry; format: cell-based
# [24] = Inhibition of JAK-mediated IL6-induced Stat3 phosphorylation in BALB/c mouse CD8+ T cells by Phospho-Flow cytometry; format: cell-based; details: T-cell
# Mus musculus [25] = assay: In vivo inhibition of JAK-mediated IL6-induced Stat3 phosphorylation in spleen cells in BALB/c mouse at 1 to 10 mg/kg, iv administered 30 mins before IL challenge for 15 mins; format: functional, organism-based
# [26] = Inhibition of JAK-mediated IL7-induced Stat5 phosphorylation in BALB/c mouse CD4+ T cells by Phospho-Flow cytometry; format: cell-based; details: T-cell
# [27] = Inhibition of JAK-mediated interferon-gamma-induced Stat1 phosphorylation in BALB/c mouse CD11b-hi neutrophils by Phospho-Flow cytometry
# [28] = Inhibition of JAK-mediated IL15-induced Stat5 phosphorylation in BALB/c mouse B cells by Phospho-Flow cytometry; format: cell-based
# [29] = Inhibition of JAK-mediated IL4-induced Stat6 phosphorylation in BALB/c mouse CD11b-int macrophages by Phospho-Flow cytometry
# [30] = Inhibition of JAK-mediated IL6-induced Stat1 phosphorylation in BALB/c mouse CD8+ T cells by Phospho-Flow cytometry; format: cell-based; details: T-cell
# [31] = Inhibition of JAK-mediated IL6-induced Stat3 phosphorylation in BALB/c mouse CD11b-int macrophages by Phospho-Flow cytometry
# [32] = Inhibition of JAK-mediated IL7-induced Stat5 phosphorylation in BALB/c mouse CD11b-hi neutrophils by Phospho-Flow cytometry
# [33] = Inhibition of JAK-mediated interferon-gamma-induced Stat1 phosphorylation in BALB/c mouse CD4+ T cells by Phospho-Flow cytometry; format: cell-based; details: T-cell
# [34] = Inhibition of JAK-mediated IL4-induced Stat5 phosphorylation in BALB/c mouse CD8+ T cells by Phospho-Flow cytometry; format: cell-based; details: T-cell
# [35] = Inhibition of JAK-mediated IL15-induced Stat5 phosphorylation in BALB/c mouse CD11b-hi neutrophils by Phospho-Flow cytometry
# [36] = Inhibition of JAK-mediated IL6-induced Stat1 phosphorylation in BALB/c mouse CD11b-int macrophages by Phospho-Flow cytometry
# [37] = Inhibition of JAK-mediated IL4-induced Stat5 phosphorylation in BALB/c mouse B cells by Phospho-Flow cytometry; format: cell-based
# B [38] = assay: Inhibition of JAK-mediated interferon-gamma-induced Stat1 phosphorylation in BALB/c mouse B cells at 3.5 uM by Phospho-Flow cytometry; format: cell-based
# [39] = Inhibition of JAK-mediated IL6-induced Stat3 phosphorylation in BALB/c mouse CD4+ T cells by Phospho-Flow cytometry; format: cell-based; details: T-cell
# [40] = Inhibition of JAK-mediated interferon-gamma-induced Stat1 phosphorylation in BALB/c mouse B cells by Phospho-Flow cytometry; format: cell-based
# [41] = Inhibition of JAK-mediated IL10-induced Stat3 phosphorylation in BALB/c mouse CD4+ T cells by Phospho-Flow cytometry; format: cell-based; details: T-cell
# [42] = Inhibition of JAK-mediated interferon-gamma-induced Stat1 phosphorylation in BALB/c mouse CD11b-int macrophages by Phospho-Flow cytometry
# [43] = Inhibition of JAK-mediated IL15-induced Stat5 phosphorylation in BALB/c mouse CD8+ T cells by Phospho-Flow cytometry; format: cell-based; details: T-cell
# [44] = Inhibition of JAK-mediated IL4-induced Stat6 phosphorylation in BALB/c mouse CD8+ T cells by Phospho-Flow cytometry; format: cell-based; details: T-cell
# [45] = Inhibition of JAK-mediated IL6-induced Stat1 phosphorylation in BALB/c mouse CD4+ T cells by Phospho-Flow cytometry; format: cell-based; details: T-cell
# Mus musculus [46] = assay: In vivo inhibition of JAK-mediated IL4-induced Stat6 phosphorylation in blood cells in BALB/c mouse at 1 to 10 mg/kg, iv administered 30 mins before IL challenge for 15 mins; format: functional, organism-based
# [47] = Inhibition of JAK-mediated IL4-induced Stat6 phosphorylation in BALB/c mouse B cells by Phospho-Flow cytometry; format: cell-based
# Mus musculus [48] = species: Mus musculus; assay: Inhibition of JAK-mediated IL4-induced Stat6 phosphorylation in BALB/c mouse CD11b-hi neutrophils by Phospho-Flow cytometry
# B [49] = assay: Inhibition of JAK-mediated IL10-induced Stat3 phosphorylation in BALB/c mouse B cells at 1 uM by Western blotting analysis; format: cell-based
# B [50] = assay: Inhibition of JAK-mediated IL4-induced Stat6 phosphorylation in BALB/c mouse B cells at 10 uM by Western blotting analysis; format: cell-based
# Mus musculus [51] = species: Mus musculus; assay: Inhibition of JAK-mediated IL4-induced Stat6 phosphorylation in BALB/c mouse CD8+ Tcells by Phospho-Flow cytometry
# B [52] = assay: Inhibition of JAK-mediated IL4-induced Stat5 phosphorylation in BALB/c mouse B cells at 1 uM by Western blotting analysis; format: cell-based
smiles,measurement,setting,value
COC1=C[C@]23CCCN2CCc2cc4c(cc2[C@@H]3[C@@H]1O)OCO4 [CEPHALOTAXINE],inhibition,[1],> 65%
same,inhibition,MAP kinase p38 [2],25%
same,IC50,MAP kinase p38 [3],0.2 µM
same,inhibition,[4],25%
COC1=C(N)C(=O)c2nc(-c3nc(C(=O)O)c(C)c(-c4ccc(OC)c(OC)c4O)c3N)ccc2C1=O [STREPTONIGRIN],IC50,[5],< 20 µM
same,inhibition,Mus musculus [6],Active
same,IC50,[7],< 20 µM
same,IC50,[8],< 20 µM
same,IC50,[9],< 20 µM
same,IC50,[10],< 20 µM
same,IC50,[11],< 20 µM
same,IC50,[12],< 20 µM
same,inhibition,Mus musculus [13],Active
same,inhibition,T-cell,< 50%
same,IC50,[14],< 20 µM
same,IC50,[15],< 20 µM
same,inhibition,[1],> 65%
same,IC50,[16],< 20 µM
same,IC50,[17],< 20 µM
same,IC50,[18],< 20 µM
same,IC50,[19],< 20 µM
same,IC50,[20],< 20 µM
same,IC50,[21],< 20 µM
same,IC50,[22],< 20 µM
same,IC50,[23],< 20 µM
same,IC50,[24],< 20 µM
same,inhibition,Mus musculus [25],Active
same,IC50,[26],< 20 µM
same,IC50,[27],< 20 µM
same,IC50,[28],< 20 µM
same,IC50,[29],< 20 µM
same,IC50,[30],< 20 µM
same,IC50,[31],< 20 µM
same,IC50,[32],< 20 µM
same,IC50,[33],< 20 µM
same,IC50,[34],< 20 µM
same,IC50,[35],< 20 µM
same,IC50,[36],< 20 µM
same,IC50,[37],< 20 µM
same,inhibition,MAP kinase p38 [2],25%
same,inhibition,B [38],Active
same,IC50,[39],< 20 µM
same,IC50,[40],< 20 µM
same,IC50,[41],< 20 µM
same,IC50,[42],< 20 µM
same,IC50,[43],< 20 µM
same,IC50,[44],< 20 µM
same,inhibition,[4],25%
same,IC50,[45],< 20 µM
same,inhibition,Mus musculus [46],Active
C=C1C(=O)O[C@H]2C[C@@H]1[C@@H](OC(C)=O)C/C(C)=C/CC/C(C)=C\CC[C@@]2(C)O [CRASSIN],IC50,[5],< 20 µM
same,IC50,[7],< 20 µM
same,IC50,[8],< 20 µM
same,IC50,[9],1 µM
same,IC50,[10],< 20 µM
same,IC50,[11],< 20 µM
same,IC50,[47],16 µM
same,IC50,[12],< 20 µM
same,IC50,[14],< 20 µM
same,IC50,[15],< 20 µM
same,inhibition,[1],25%
same,IC50,[16],< 20 µM
same,IC50,[17],< 20 µM
same,IC50,[18],< 20 µM
same,inhibition,Mus musculus [48],Dose-dependent effect
same,IC50,[19],< 20 µM
same,IC50,[20],< 20 µM
same,IC50,[21],< 20 µM
same,IC50,[22],< 20 µM
same,inhibition,B [49],Active
same,IC50,[23],< 20 µM
same,IC50,[24],< 20 µM
same,IC50,[26],< 20 µM
same,IC50,[27],< 20 µM
same,IC50,[28],< 20 µM
same,IC50,[29],< 20 µM
same,IC50,[30],< 20 µM
same,IC50,[31],< 20 µM
same,IC50,[32],< 20 µM
same,IC50,[33],< 20 µM
same,IC50,[34],< 20 µM
same,IC50,[35],< 20 µM
same,IC50,[36],< 20 µM
same,inhibition,B [50],Active
same,IC50,[37],1 µM
same,inhibition,Mus musculus [51],Dose-dependent effect
same,inhibition,MAP kinase p38 [2],25%
same,inhibition,B [52],Active
same,IC50,[39],< 20 µM
same,IC50,[40],< 20 µM
same,IC50,[41],< 20 µM
same,IC50,[42],< 20 µM
same,IC50,[43],< 20 µM
same,IC50,[44],< 20 µM
same,inhibition,[4],Active
same,IC50,[45],< 20 µM
